From ChEMBL document CHEMBL1909046, “DrugMatrix in vitro pharmacology data”

Assays:
[1] = DRUGMATRIX: Sodium/nucleoside co-transporter radioligand binding (ligand: nitrobenzylthioinosine); type: cell membranes, Cavia porcellus, Dunkin-Hartley, Cerebral cortex, Membrane; details: Not Active = under 50% inhibition at 10 µM
[2] = target: T1, Alpha-1B adrenergic receptor (Rattus norvegicus, UniProt P15823); test: DRUGMATRIX: Alpha-1B adrenergic receptor radioligand binding (ligand: prazosin); type: cell membranes, Wistar, Liver, Membrane; details: Not Active = under 50% inhibition at 10 µM
T1 sequence (P15823 whole entry): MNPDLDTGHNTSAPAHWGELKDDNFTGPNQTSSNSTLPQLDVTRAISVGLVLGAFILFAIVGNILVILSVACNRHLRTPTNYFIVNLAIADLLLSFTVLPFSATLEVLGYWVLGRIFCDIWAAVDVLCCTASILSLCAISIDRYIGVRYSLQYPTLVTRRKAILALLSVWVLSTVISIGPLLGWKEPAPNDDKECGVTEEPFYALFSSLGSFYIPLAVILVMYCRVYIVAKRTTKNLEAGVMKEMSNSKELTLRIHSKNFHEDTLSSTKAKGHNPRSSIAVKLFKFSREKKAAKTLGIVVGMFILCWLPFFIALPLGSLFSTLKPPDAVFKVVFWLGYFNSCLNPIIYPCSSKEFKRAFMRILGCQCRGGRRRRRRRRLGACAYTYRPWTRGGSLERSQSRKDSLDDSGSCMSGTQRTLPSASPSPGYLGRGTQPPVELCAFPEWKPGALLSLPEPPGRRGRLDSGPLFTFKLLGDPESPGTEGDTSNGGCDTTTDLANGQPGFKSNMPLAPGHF

[3] = DRUGMATRIX: Calcium Channel Type L, Benzothiazepine radioligand binding (ligand: [3H] Diltiazem); type: cell membranes, Rattus norvegicus, Wistar, Brain, Membrane; details: Not Active = under 50% inhibition at 10 µM
[4] = DRUGMATRIX: Glutamate, NMDA, Agonism radioligand binding (ligand: [3H] CGP-39653); type: cell membranes, Rattus norvegicus, Wistar, Cerebral cortex, Membrane; details: Not Active = under 50% inhibition at 10 µM
[5] = DRUGMATRIX: Glutamate, NMDA, Phencyclidine radioligand binding (ligand: [3H] TCP); type: cell membranes, Rattus norvegicus, Wistar, Cerebral cortex, Membrane; details: Not Active = under 50% inhibition at 10 µM
[6] = DRUGMATRIX: Purinergic P2X radioligand binding (ligand: [3H] alpha, beta-Methylene-ATP); type: cell membranes, Oryctolagus cuniculus, New Zealand albino, Urinary bladder, Membrane; details: Not Active = under 50% inhibition at 10 µM
[7] = target: Cytochrome P450 2C19 (Homo sapiens, UniProt P33261); details: bti-tn-5b1-4; note: in other assays of this panel Not Active means under 50% inhibition at 10 µM
Cytochrome P450 2C19, sequence (P33261 whole entry): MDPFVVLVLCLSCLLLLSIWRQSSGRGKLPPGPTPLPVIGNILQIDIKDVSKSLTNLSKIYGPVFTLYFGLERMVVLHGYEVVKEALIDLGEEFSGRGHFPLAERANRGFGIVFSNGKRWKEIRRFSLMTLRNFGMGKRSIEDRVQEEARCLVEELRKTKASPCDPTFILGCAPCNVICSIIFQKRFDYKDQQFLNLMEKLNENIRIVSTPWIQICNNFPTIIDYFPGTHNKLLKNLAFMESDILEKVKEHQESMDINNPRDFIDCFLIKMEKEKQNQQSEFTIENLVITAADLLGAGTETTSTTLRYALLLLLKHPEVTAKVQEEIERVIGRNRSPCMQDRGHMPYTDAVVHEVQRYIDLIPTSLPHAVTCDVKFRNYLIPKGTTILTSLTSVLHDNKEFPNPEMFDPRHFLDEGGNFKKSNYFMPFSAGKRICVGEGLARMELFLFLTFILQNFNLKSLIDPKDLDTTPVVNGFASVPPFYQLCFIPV

[8] = target: T2, Glucocorticoid receptor (Homo sapiens, UniProt P04150); details: hela s3; note: in other assays of this panel Not Active means under 50% inhibition at 10 µM
T2 sequence (P04150 whole entry): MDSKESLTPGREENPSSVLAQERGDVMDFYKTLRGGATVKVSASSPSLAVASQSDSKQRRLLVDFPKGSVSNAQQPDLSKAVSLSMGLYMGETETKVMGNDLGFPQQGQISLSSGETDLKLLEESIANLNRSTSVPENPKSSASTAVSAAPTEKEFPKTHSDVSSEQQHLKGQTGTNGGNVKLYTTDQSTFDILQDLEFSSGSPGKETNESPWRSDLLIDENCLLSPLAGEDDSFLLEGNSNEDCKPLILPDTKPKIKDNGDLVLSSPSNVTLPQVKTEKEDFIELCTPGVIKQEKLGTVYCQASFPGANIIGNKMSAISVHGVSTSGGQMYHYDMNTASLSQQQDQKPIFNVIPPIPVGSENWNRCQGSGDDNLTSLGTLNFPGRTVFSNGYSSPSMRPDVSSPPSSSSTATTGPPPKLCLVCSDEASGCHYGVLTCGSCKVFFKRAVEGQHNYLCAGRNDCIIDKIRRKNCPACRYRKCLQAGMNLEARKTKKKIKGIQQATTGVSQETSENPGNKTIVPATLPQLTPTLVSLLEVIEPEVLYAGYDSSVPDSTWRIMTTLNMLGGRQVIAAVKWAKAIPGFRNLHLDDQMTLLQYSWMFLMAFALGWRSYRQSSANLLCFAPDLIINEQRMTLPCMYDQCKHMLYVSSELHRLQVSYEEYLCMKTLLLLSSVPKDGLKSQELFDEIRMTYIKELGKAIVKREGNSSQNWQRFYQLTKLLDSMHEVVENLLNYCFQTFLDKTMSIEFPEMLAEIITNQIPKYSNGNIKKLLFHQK

Row | SMILES | IC50 [1] | Ki [1] | IC50 [2] | IC50 [3] | Ki [3] | IC50 [4] | Ki [4] | IC50 [5] | Ki [5] | IC50 [6] | Ki [6] | IC50 [7] | Ki [7] | IC50 [8] | IC50 ([1]; read-out: IC50) | Ki ([1]; read-out: Ki) | IC50 ([3]; read-out: IC50) | Ki ([3]; read-out: Ki)
1 | CCCCC(=O)N(Cc1ccc(-c2ccccc2-c2nnn[nH]2)cc1)[C@H](C(=O)O)C(C)C | Not Active | Not Active | Not Active | Not Active | Not Active | Not Active | Not Active | Not Active | Not Active | Not Active | Not Active | Not Active | Not Active | Not Active |  |  |  | 
2 | O=C(O)COc1ccc(C(=O)c2cccs2)c(Cl)c1Cl | Not Active | Not Active | Not Active | Not Active | Not Active | Not Active | Not Active | Not Active | Not Active | Not Active | Not Active | Not Active | Not Active | Not Active |  |  |  | 
3 | CN1[C@@H]2CC[C@H]1C[C@@H](OC(c1ccccc1)c1ccccc1)C2 [BENZTROPINE] |  |  |  |  |  |  |  |  |  |  |  | Not Active | Not Active | Not Active |  |  |  | 
4 | C[C@@](Cc1ccc(O)c(O)c1)(NN)C(=O)O.O [CARBIDOPA] | Not Active | Not Active | Not Active | Not Active | Not Active | Not Active | Not Active | Not Active | Not Active | Not Active | Not Active | Not Active | Not Active |  |  |  |  | 
5 | CN1CCN(C2=Nc3cc(Cl)ccc3Nc3ccccc32)CC1 [CLOZAPINE] |  |  |  |  |  |  |  |  |  |  |  | Not Active | Not Active | Not Active |  |  |  | 
6 | CC(C)NC[C@@H](O)COc1cccc2ccccc12 [DEXPROPRANOLOL] |  |  |  |  |  |  |  |  |  |  |  | Not Active | Not Active |  |  |  |  | 
7 | CC(C)NC[C@H](O)COc1cccc2ccccc12 [LEVOPROPRANOLOL] |  |  |  |  |  |  |  |  |  |  |  | Not Active | Not Active |  |  |  |  | 
8 | O=C(O)CCCCC1CCSS1 (stereo not drawn) [LIPOIC ACID, ALPHA] | Not Active | Not Active | Not Active | Not Active | Not Active | Not Active | Not Active | Not Active | Not Active | Not Active | Not Active | Not Active | Not Active | Not Active |  |  |  | 
9 | CN(C)C(=O)C(CCN1CCC(O)(c2ccc(Cl)cc2)CC1)(c1ccccc1)c1ccccc1 [LOPERAMIDE] |  |  |  |  |  |  |  |  |  |  |  | Not Active | Not Active | Not Active |  |  |  | 
10 | Clc1ccc(COC(Cn2ccnc2)c2ccc(Cl)cc2Cl)c(Cl)c1 (stereo not given) [MICONAZOLE] |  |  |  |  |  |  |  |  |  |  |  |  |  | Not Active |  |  |  | 
11 | Oc1ccc2c3c1O[C@H]1[C@@H](O)CC[C@@]4(O)[C@@H](C2)N(CC2CCC2)CC[C@]314 [NALBUPHINE] |  |  |  |  |  |  |  |  |  |  |  |  |  | Not Active |  |  |  | 
12 | C[C@]12C=CC(=O)C=C1CC[C@@H]1[C@@H]2C(=O)C[C@@]2(C)[C@H]1CC[C@]2(O)C(=O)CO [PREDNISONE] |  |  | Not Active | Not Active | Not Active | Not Active | Not Active | Not Active | Not Active | Not Active | Not Active |  |  |  | 4.95 µM | 1.69 µM |  | 
13 | OCCOCCN1CCN(C2=Nc3ccccc3Sc3ccccc32)CC1 [QUETIAPINE] |  |  |  |  |  |  |  |  |  |  |  | Not Active | Not Active |  |  |  |  | 
14 | COC(=O)[C@H]1[C@H]2C[C@@H]3c4[nH]c5cc(OC)ccc5c4CCN3C[C@H]2C[C@@H](OC(=O)c2cc(OC)c(OC)c(OC)c2)[C@@H]1OC [RESERPINE] | Not Active | Not Active | Not Active |  |  | Not Active | Not Active | Not Active | Not Active | Not Active | Not Active | Not Active | Not Active | Not Active |  |  | 3.71 µM | 3.29 µM
15 | O=C(O)c1ccccc1O [SALICYLIC ACID] | Not Active | Not Active | Not Active | Not Active | Not Active | Not Active | Not Active | Not Active | Not Active | Not Active | Not Active | Not Active | Not Active |  |  |  |  | 
16 | C[S+]([O-])c1ccc(-c2nc(-c3ccncc3)c(-c3ccc(F)cc3)[nH]2)cc1 (stereo not given) [SB-203580] |  |  |  |  |  |  |  |  |  |  |  |  |  | Not Active |  |  |  | 
17 | CC1CCC(NC(=O)N(CCCl)N=O)CC1 (stereo not given) [SEMUSTINE] | Not Active | Not Active | Not Active | Not Active | Not Active | Not Active | Not Active | Not Active | Not Active | Not Active | Not Active | Not Active | Not Active | Not Active |  |  |  | 
18 | O=C1C[C@@H]2OCC=C3CN4CC[C@]56c7ccccc7N1[C@H]5[C@H]2[C@H]3C[C@H]46 [STRYCHNINE] | Not Active | Not Active | Not Active | Not Active | Not Active | Not Active | Not Active | Not Active | Not Active | Not Active | Not Active | Not Active | Not Active |  |  |  |  | 
19 | C[N+](C)(C)CCOC(=O)CCC(=O)OCC[N+](C)(C)C.[Cl-].[Cl-] [SUCCINYLCHOLINE CHLORIDE] | Not Active | Not Active | Not Active | Not Active | Not Active | Not Active | Not Active | Not Active | Not Active | Not Active | Not Active |  |  | Not Active |  |  |  | 
20 | Nc1ccc(S(=O)(=O)NC(=O)c2ccccc2)cc1 [SULFABENZAMIDE] | Not Active | Not Active | Not Active | Not Active | Not Active | Not Active | Not Active | Not Active | Not Active | Not Active | Not Active | Not Active | Not Active | Not Active |  |  |  | 
21 | O=c1[nH]c(=O)n(C2CCCO2)cc1F (stereo not given) [TEGAFUR] | Not Active | Not Active | Not Active | Not Active | Not Active | Not Active | Not Active | Not Active | Not Active | Not Active | Not Active | Not Active | Not Active |  |  |  |  | 
22 | CC(=N)S [THIOACETAMIDE] | Not Active | Not Active | Not Active | Not Active | Not Active | Not Active | Not Active | Not Active | Not Active | Not Active | Not Active | Not Active | Not Active |  |  |  |  | 
23 | Cc1ccc(C(=O)c2ccc(CC(=O)O)n2C)cc1 [TOLMETIN] | Not Active | Not Active | Not Active | Not Active | Not Active | Not Active | Not Active | Not Active | Not Active | Not Active | Not Active | Not Active | Not Active |  |  |  |  | 
24 | CN1CCN(CCCN2c3ccccc3Sc3ccc(C(F)(F)F)cc32)CC1 [TRIFLUOPERAZINE] | Not Active | Not Active | Not Active | Not Active | Not Active | Not Active | Not Active | Not Active | Not Active | Not Active | Not Active |  |  | Not Active |  |  |  | 
